Test results reported in PubChem BioAssay (NCI).
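Protocol summary: plate cells (96-well), add compound at 5 concentrations, incubate 48 h, interpolate endpoints linearly. TGI marks complete inhibition of growth.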

What was measured:
Assay in all cases: inhibition of tumour cell growth, NCI panel, 48 h
[1] = system: SF-539 CNS
[2] = system: SF-295 CNS
[3] = system: MOLT-4 leukemia
[4] = system: UACC-257 melanoma
[5] = system: HT29 colon
[6] = system: HL-60(TB) leukemia
[7] = system: UO-31 renal
[8] = system: MCF7 breast
[9] = system: SN12C renal
[10] = system: SK-MEL-5 melanoma
[11] = system: K-562 leukemia
[12] = system: IGROV1 ovarian
[13] = system: A549 NSCLC
[14] = system: OVCAR-5 ovarian
[15] = system: TK-10 renal
[16] = system: COLO 205 colon
[17] = system: SF-268 CNS
[18] = system: NCI/ADR-RES ovarian
[19] = system: NCI-H522 lung
[20] = system: U251 CNS
[21] = system: SW-620 colon
[22] = system: CCRF-CEM leukemia
[23] = system: SK-MEL-28 melanoma
[24] = system: SR leukemia
[25] = system: MDA-MB-435
[26] = system: 786-0 renal
[27] = system: PC-3 prostate
[28] = system: NCI-H460 lung
[29] = system: M14 melanoma
[30] = system: SK-OV-3 ovarian
[31] = system: HCT-116 colon
[32] = system: MDA-MB-231 breast
[33] = system: HCC-2998 colon
[34] = system: SNB-19 CNS
[35] = system: EKVX NSCLC
[36] = system: MDA-N
[37] = system: RPMI-8226 leukemia
[38] = system: HOP-62 NSCLC
[39] = system: T-47D breast
[40] = system: SNB-75 CNS
[41] = system: OVCAR-8 ovarian
[42] = system: ACHN renal
[43] = system: KM12 colon
[44] = system: HCT-15 colon
[45] = system: HS 578T breast
[46] = system: UACC-62 melanoma
[47] = system: DU-145 prostate
[48] = system: OVCAR-3 ovarian
[49] = system: CAKI-1 renal
[50] = system: BT-549 breast
[51] = system: NCI-H226 lung
[52] = system: LOX IMVI melanoma
[53] = system: RXF 393 renal
[54] = system: A498 renal
[55] = system: SK-MEL-2 melanoma
[56] = system: NCI-H23 lung
[57] = system: HOP-92 NSCLC
[58] = system: OVCAR-4 ovarian

For `O=C1CN(c2cccc(C(F)(F)F)c2)C(=O)CN1NCNN1CC(=O)N(c2cccc(C(F)(F)F)c2)CC1=O`, the TGI [1] was > 100 µM, the TGI [2] was > 100 µM and the TGI [3] was > 100 µM. The TGI [4] was > 100 µM, the TGI [5] was > 100 µM and the TGI [6] was > 100 µM. The TGI [7] was > 100 µM, the TGI [8] was > 100 µM and the TGI [9] was > 100 µM. For the same molecule, the TGI [10] was > 100 µM, the TGI [11] was > 100 µM and the TGI [12] was > 100 µM. The TGI [13] was > 100 µM, the TGI [14] was > 100 µM and the TGI [15] was > 100 µM. The TGI [16] was > 100 µM, the TGI [17] was > 100 µM and the TGI [18] was > 100 µM. The TGI [19] was > 100 µM, the TGI [20] was > 100 µM and the TGI [21] was > 100 µM. For the same molecule, the TGI [22] was > 100 µM, the TGI [23] was > 100 µM and the TGI [24] was > 100 µM. The TGI [25] was > 100 µM, the TGI [26] was > 100 µM and the TGI [27] was > 100 µM. For the same molecule, the TGI [28] was > 100 µM, the TGI [29] was > 100 µM and the TGI [30] was > 100 µM. The TGI [31] was > 100 µM, the TGI [32] was > 100 µM and the TGI [33] was > 100 µM. For the same molecule, the TGI [34] was > 100 µM, the TGI [35] was > 100 µM and the TGI [36] was > 100 µM. The TGI [37] was > 100 µM, the TGI [38] was > 100 µM and the TGI [39] was > 100 µM. The TGI [40] was > 100 µM, the TGI [41] was > 100 µM and the TGI [42] was > 100 µM. For the same molecule, the TGI [43] was > 100 µM, the TGI [44] was > 100 µM and the TGI [45] was > 100 µM.
In the case of `CCOC(=O)c1ccc2c(c1)nc1n2C(c2c(F)cccc2F)SC1` (stereo not given), the TGI [46] is reported as > 100 µM, the TGI [47] is reported as > 100 µM and the TGI [1] is reported as 53.1 µM. The TGI [2] was 73.7 µM, the TGI [3] was > 100 µM and the TGI [4] was > 100 µM. For the same molecule, the TGI [5] was 56.4 µM, the TGI [6] was > 100 µM and the TGI [7] was > 100 µM. For the same molecule, the TGI [8] was 74.6 µM, the TGI [9] was > 100 µM and the TGI [10] was 26.1 µM. The TGI [11] was > 100 µM, the TGI [12] was 42 µM and the TGI [13] was > 100 µM. For the same molecule, the TGI [48] was 43.4 µM, the TGI [14] was > 100 µM and the TGI [15] was > 100 µM. For the same molecule, the TGI [49] was > 100 µM, the TGI [16] was 28.5 µM and the TGI [17] was > 100 µM. For the same molecule, the TGI [18] was 44.9 µM, the TGI [50] was > 100 µM and the TGI [51] was 34.6 µM. The TGI [52] was 58.6 µM, the TGI [20] was > 100 µM and the TGI [21] was > 100 µM. The TGI [22] was > 100 µM, the TGI [23] was > 100 µM and the TGI [24] was > 100 µM. The TGI [53] was > 100 µM, the TGI [25] was > 100 µM and the TGI [26] was 67.8 µM. The TGI [27] was 71.2 µM, the TGI [28] was > 100 µM and the TGI [29] was > 100 µM. For the same molecule, the TGI [30] was > 100 µM, the TGI [31] was 34 µM and the TGI [32] was > 100 µM. The TGI [54] was > 100 µM, the TGI [55] was 38.4 µM and the TGI [33] was > 100 µM. The TGI [34] was 83.5 µM, the TGI [56] was 77.3 µM and the TGI [37] was > 100 µM. The TGI [57] was > 100 µM, the TGI [38] was > 100 µM and the TGI [39] was 49.9 µM. For the same molecule, the TGI [40] was > 100 µM, the TGI [58] was > 100 µM and the TGI [41] was 58.7 µM. The TGI [42] was > 100 µM, the TGI [43] was 37.7 µM and the TGI [44] was > 100 µM. The TGI [45] was > 100 µM.
